# In ChEMBL document CHEMBL4808180, “Identification of 2,2-Dimethylbutanoic Acid (HST5040), a Clinical Development Candidate for the Treatment of Propionic Acidemia and Methylmalonic Acidemia” (J Med Chem, 2021):
# Legend:
# [1] = Reduction of propionyl-CoA in human hepatocytes derived from propionic acidemia patient at 100 uM pretreated for 30 mins followed by 13C-isoleucine addition and measured after 1 hr by MS/MS analysis relative to control; type: functional, Hepatocyte; design: scale not given: the % may be the effect or the level left; conditions: time 90 min, 1.5 h
# [2] = Reduction of propionyl-CoA in human hepatocytes derived from propionic acidemia patient pretreated for 30 mins followed by 13C-isoleucine addition and measured after 1 hr by MS/MS analysis; type: functional, cell-based; conditions: hepatocyte
SMILES,Activity [1] [%],EC50 [2] [µM]
CCCC(C)C(=O)O (stereo unspecified),77,12.6
CC(CCO)C(=O)O (stereo unspecified),66,> 100
CCC(CC)C(=O)O,67,33.7
CCCC(CCC)C(=O)OC,63,> 100
O=C(O)C1CCCC1,42,12.3
O=C(O)C1CCC1,49,55.4
O=C(O)CCCC(F)(F)F,65,9.91
CC1(CC(=O)O)CC1,65,15.5
CCC(C)(C)C(N)=O,57,> 100
CSCCCC(=O)O,78,18.9
CCCC(CC)C(=O)O (stereo unspecified),98,1.23
COCC(C)(C)C(=O)O,75,2.69
CNCCC(=O)O,64,6.55
CCCC(C)(C)C(=O)O,96,0.76
CCC(C)(C)C(=O)OC,91,1.73
O=C(O)C1CC1 [CYCLOPROPANE CARBOXYLIC ACID],66,23.3
CC(C)(C)C(=O)O [PIVALATE],77,5.53
CC(C)(C)CC(=O)O [T-BUTYLACETIC ACID],97,0.91
